Entries after “also recorded” stand apart in the source; their conditions may differ. Where two headings read alike, the source gives them in different places.
Key:
[1] = tested on: Aß amyloid peptide; assay: In vitro assays of Aß amyloid peptide polymerization into oligomers and aggregates; type: biochemical; conditions: at nanomolar concentrations
Description: One of the most routinely used approaches to monitor Aβ polymerization is the thioflavin T binding assay (Elmaleh, 2014; Hori, 2015). […] AO peptide at 5 μM was mixed with 10 μM thioflavin T with drug at different concentrations.
Fibrillization of synthetic Aß40 (left column) or Aß42 (right column) peptides was followed over 1 hour.

[2] = tested on: transient middle cerebral artery occlusion; conditions: adult rats; intracerebral injection; cited from earlier work
[3] = cited from earlier work
[4] = tested on: hemorrhage formation after tPa treatment; conditions: adult rats; intracerebral injection; cited from earlier work
[5] = for maximum plasma concentration / time of maximum plasma concentration: mean ± spread
[6] = tested on: Aß amyloid peptide; conditions: at nanomolar concentrations; laboratory testing (Hori 2015; Elmaleh 2014); cited from earlier work
[7] = tested on: experimental cerebral ischemia/reperfusion; conditions: cited from earlier work
[8] = clinical; conditions: human, in vivo, inhaled or intranasal, AUC (plasma)
[9] = tested on: unilateral hypoxia-ischemia in neonatal rats; conditions: given at the end of the hypoxic period, assessed at 48 hours; cited from earlier work
[10] = tested on: microglial cells; assay: Microglia culture incubated with synthetic Aß40 or Aß42, Aß ELISA of media; type: cell-based; conditions: 0.10 nM, 10 μM or 1 mM Cromolyn Sodium, 16 hours
Description: After the incubation, the concentrations of […]-42 (right panel) in media were measured using Aß ELISA and normalized with microglia cell number and according to the PBS control condition. (n=3 experiments; *, P<0.05, **, P<0.01)

[11] = tested on: APP/PS1 mice; assay: Short-term treatment of APP/PS1 mice, TBS soluble Aß in brain (ELISA, immunoblotting); type: in vivo; conditions: after 1 week of peripherally administered cromolyn sodium (intraperitoneally daily), 7.5 months old APP/PS1 mice
Description: One week after daily injection, tris-buffered saline (TBS) soluble Aßx-40 (left graph) and Aßx-42 (right graph) were measured under the condition with (black bar) or without (white bar) pre-incubation with guanidine (Gdn)-HCl using Aß ELISA. The value under the incubation with Gdn-HCl show the concentration of total TBS soluble Aß, and the value under the no incubation with Gdn-HCl show the concentration of monomeric Aß. FIG. 5B: oligomeric Aß in TBS soluble brain extracts were measured using 82E1/82E1 Aß oligomer specific ELISA. FIG. 5C illustrates representative immunoblotting of TBS soluble brain extracts with anti-Aß antibody (6E10 and 82E1) (left panel). The densitometry of monomeric Aß was quantified (right graph). (n=3-5/group; *, P<0.05, **, P<0.01).

[12] = tested on: APP/PS1 mice; assay: Immunostaining of Aß and microglial marker Iba1 in brain sections; type: in vivo; conditions: 3.15 mg/kg daily for seven days vs PBS
[13] = 34.2 mg double inhaled dose, range

O=C([O-])c1cc(=O)c2c(OCC(O)COc3cccc4oc(C(=O)[O-])cc(=O)c34)cccc2o1.[Na+].[Na+] [Cromolyn]
inhibition of Aß aggregation / polymerization into oligomers and higher order aggregates [1]: inhibition; also recorded: effectively inhibits | neutrophil accumulation [2]: reduced | variability of plasma levels following inhalation [3]: high intraand inter-subject variability | cromolyn uptake by asthmatics ([3]; inhalation, compared with healthy volunteers): lower than by healthy volunteers | hemorrhage formation after tPa treatment [4]: inhibited | maximum plasma concentration ([5]; 17.1 mg single inhaled dose, healthy volunteers): 47.1 ± 33.6 ng/mL | time of maximum plasma concentration ([5]; 17.1 mg single inhaled dose): 23.3 ± 16.9 min | time of maximum plasma concentration, range ([5]; 17.1 mg single inhaled dose, range): 5 to 60 min | maximum plasma concentration, range ([5]; 17.1 mg single inhaled dose, range over subjects): 14.0 to 133 ng/mL | maximum plasma concentration ([5]; 34.2 mg double inhaled dose): 95.0 ± 45.5 ng/mL | time of maximum plasma concentration ([5]; 34.2 mg double inhaled dose): 22.2 ± 19.4 min | maximum plasma concentration, range [5, 13]: 36.1 to 236 ng/mL | time of maximum plasma concentration, range [5, 13]: 5 to 60 min | binding to and inhibition of amyloid β (Aβ) peptide oligomerization [6]: bind to and inhibit | survival of experimental animals [7]: improved survival | AUC ([8]; 17.1 mg, 17.1 mg single dose inhalation, mean ± spread): 148 ± 67.1 ng·h/mL | AUC ([8]; 17.1 mg, range, 17.1 mg single dose inhalation): 44.7 to 287 ng·h/mL | AUC ([8]; 34.2 mg, 34.2 mg double dose inhalation, mean ± spread): 254 ± 93.8 ng·h/mL | AUC ([8]; 34.2 mg, range, 34.2 mg double dose inhalation): 122 to 443 ng·h/mL | glial activation [9]: limited | mast cell migration/degranulation [9]: limited | neuronal loss [9]: limited

O=C(O)c1cc(=O)c2c(OCC(O)COc3cccc4oc(C(=O)O)cc(=O)c34)cccc2o1 [cromolyn sodium]
Aß40 levels in media of microglia culture ([10]; 50 nM synthetic Aß40): dose-dependent decrease | Aß42 levels in media of microglia culture ([10]; 50 nM synthetic Aß42): dose-dependent decrease | decrease of total soluble Aβ levels [11]: over 50% | percentage of Iba1 immunoreactivity overlapping with amyloid [12]: higher percentage | percentage of Iba1 immunoreactivity overlapping with amyloid ([12]; listed as Cromolyn Sodium): increased overlap
